Measured values as given in ChEMBL document CHEMBL1201862, “PubChem BioAssay data set” (2004).
Each block holds one molecule with its values, some of them ahead of it. Calls of active or inactive are those of the source.

How the values were obtained:
HEK293 = assay: EBV LMP1 TES2 canonical NF-kB signalling blockers – cell-based, HEK293, luciferase, cherry-pick, dose response (AID 588343); assay type: functional; conditions: Homo sapiens
[1] = target: T1, Short transient receptor potential channel 4 (Mus musculus, UniProt Q9QUQ5); assay: potentiation of DAMGO-evoked TRPC4 calcium signal – cell-based, HEK293 TRPC4/mu-opioid, Fluo-4 calcium, EC20 DAMGO, dose response (AID 434941); assay type: functional
T1 sequence (Q9QUQ5 whole entry): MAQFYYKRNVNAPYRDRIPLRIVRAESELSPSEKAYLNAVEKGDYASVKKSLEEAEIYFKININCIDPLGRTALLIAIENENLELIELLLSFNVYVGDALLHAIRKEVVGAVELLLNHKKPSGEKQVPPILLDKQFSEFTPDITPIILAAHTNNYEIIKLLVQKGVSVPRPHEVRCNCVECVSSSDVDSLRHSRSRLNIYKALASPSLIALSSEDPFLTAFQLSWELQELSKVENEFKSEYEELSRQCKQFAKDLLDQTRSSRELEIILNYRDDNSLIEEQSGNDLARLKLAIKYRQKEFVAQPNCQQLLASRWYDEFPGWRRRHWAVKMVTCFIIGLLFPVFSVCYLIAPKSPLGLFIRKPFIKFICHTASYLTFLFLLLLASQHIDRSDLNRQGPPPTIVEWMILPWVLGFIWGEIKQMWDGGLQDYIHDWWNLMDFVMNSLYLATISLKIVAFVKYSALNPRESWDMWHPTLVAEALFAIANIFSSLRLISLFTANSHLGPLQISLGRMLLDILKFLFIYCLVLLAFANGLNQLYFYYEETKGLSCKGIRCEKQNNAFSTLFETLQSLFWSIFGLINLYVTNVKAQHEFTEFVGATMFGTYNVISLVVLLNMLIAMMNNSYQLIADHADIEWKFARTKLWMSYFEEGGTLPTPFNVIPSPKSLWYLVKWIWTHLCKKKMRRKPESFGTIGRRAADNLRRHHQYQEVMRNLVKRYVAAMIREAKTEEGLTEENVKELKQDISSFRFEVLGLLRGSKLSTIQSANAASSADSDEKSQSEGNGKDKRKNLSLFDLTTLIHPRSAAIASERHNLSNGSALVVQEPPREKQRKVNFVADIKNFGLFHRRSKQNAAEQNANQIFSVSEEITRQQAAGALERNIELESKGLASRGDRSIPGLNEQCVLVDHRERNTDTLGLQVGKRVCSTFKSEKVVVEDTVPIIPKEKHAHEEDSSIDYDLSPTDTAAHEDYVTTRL

[2] = target: T2, Heat shock factor protein 1 (Mus musculus, UniProt P38532); assay: decrease of HSF1-responsive luciferase luminescence – cell-based, NIH3T3, dose retest, confirmation (AID 2382); assay type: functional;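 also: NIH3T3 fibroblasts with HSF1-driven luciferase reporter stressed by proteasome inhibitor MG132; luminescence from HSF1-driven luciferase expression after 8 hours of MG132 stress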
T2 sequence (P38532 whole entry): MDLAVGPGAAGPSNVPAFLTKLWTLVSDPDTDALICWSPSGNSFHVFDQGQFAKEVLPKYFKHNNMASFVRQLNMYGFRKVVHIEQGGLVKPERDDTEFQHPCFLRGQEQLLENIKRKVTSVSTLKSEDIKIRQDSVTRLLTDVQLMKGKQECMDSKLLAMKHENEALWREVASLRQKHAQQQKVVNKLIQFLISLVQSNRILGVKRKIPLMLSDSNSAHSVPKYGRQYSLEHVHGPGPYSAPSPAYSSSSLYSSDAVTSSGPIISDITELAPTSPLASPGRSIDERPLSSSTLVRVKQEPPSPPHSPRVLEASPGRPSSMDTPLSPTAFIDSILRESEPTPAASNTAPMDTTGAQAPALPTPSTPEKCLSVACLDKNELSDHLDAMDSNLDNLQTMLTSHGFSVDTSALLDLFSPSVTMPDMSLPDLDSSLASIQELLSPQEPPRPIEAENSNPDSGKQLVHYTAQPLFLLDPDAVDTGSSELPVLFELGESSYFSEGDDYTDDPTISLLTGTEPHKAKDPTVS

[3] = target: T3, RNA-binding protein pos-1 (Caenorhabditis elegans, UniProt G5EF15); assay: disruptors of C. elegans POS-1 RNA interaction – biochemical, fluorescence polarization, dose response (AID 1964);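 also: purified POS-1 fused to maltose binding protein made in E. coli; potency of compounds blocking POS-1 binding to fluorescent RNA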
T3 sequence (G5EF15 whole entry): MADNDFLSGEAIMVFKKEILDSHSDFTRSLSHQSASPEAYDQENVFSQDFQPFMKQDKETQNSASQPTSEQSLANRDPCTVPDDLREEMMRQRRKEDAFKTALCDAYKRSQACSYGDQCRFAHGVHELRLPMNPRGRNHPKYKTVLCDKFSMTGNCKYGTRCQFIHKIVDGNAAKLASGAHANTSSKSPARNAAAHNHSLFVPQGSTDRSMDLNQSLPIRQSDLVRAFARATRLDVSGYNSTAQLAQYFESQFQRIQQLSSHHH

[4] = target: Luciferin 4-monooxygenase (Photinus pyralis, UniProt P08659); assay: Counter Screen for Luciferase-based Assay Positives. [Related pubchem assays: 620, 618, 411 ]
[5] = target: T4, Microphthalmia-associated transcription factor (Homo sapiens, UniProt O75030); assay: reducers of TRPM1 reporter luminescence, concentration series – cell-based, SK-MEL-5, cherry-picked, set 3, MITF inhibitor project, dose response (AID 493073); assay type: functional;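 also: SK-MEL-5 melanoma cells with luciferase driven by the MITF target TRPM1 promoter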
T4 sequence (O75030 whole entry): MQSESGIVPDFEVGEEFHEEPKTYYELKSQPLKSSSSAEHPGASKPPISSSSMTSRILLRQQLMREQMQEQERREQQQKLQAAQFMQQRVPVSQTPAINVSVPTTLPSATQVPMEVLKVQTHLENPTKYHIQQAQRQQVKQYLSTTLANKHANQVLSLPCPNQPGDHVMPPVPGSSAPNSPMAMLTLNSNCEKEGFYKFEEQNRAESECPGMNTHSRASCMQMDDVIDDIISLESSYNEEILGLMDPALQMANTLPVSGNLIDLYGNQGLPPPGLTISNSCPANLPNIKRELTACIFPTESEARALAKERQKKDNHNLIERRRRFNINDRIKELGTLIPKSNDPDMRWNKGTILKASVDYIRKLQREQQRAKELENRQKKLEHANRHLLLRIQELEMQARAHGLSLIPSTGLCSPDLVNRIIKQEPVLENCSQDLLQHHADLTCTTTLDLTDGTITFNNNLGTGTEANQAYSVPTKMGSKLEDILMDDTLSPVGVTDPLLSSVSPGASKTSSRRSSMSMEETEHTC

cells [6] = conditions: HEK293
[7] = target: T5, Zinc finger protein mex-5 (Caenorhabditis elegans, UniProt Q9XUB2); assay: potency of MEX-5 RNA-binding blockers – biochemical, C. elegans, fluorescence polarization, dose response (AID 1960)
T5 sequence (Q9XUB2 whole entry): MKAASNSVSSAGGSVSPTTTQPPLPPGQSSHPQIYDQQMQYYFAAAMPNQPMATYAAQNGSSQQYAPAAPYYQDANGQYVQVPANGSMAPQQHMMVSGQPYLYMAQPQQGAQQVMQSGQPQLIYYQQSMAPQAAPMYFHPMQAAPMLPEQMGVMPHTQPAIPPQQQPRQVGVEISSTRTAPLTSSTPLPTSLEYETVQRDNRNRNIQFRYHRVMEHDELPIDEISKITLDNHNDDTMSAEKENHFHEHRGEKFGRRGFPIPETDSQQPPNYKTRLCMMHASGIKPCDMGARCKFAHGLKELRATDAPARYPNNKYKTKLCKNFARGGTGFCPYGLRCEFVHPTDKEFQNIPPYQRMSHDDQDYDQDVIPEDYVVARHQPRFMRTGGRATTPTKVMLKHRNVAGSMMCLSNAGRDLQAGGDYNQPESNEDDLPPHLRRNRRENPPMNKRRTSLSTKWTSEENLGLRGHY

Salmon testes DNA = assay: acridine orange-DNA binding displacement – biochemical, fluorescence polarization, cherry-picked samples, set 2, artefact control for KSHV LANA DNA-binding inhibitor project, dose response (AID 504727); design: species or system Salmonidae
[8] = viability loss in HepG2 liver cells – cell-based, ATP luminescence, cherry-pick, set 6, cytotoxicity control, dose response (AID 1053125); assay type: functional
[9] = IC50 of Artemis nuclease activity blockers – biochemical, fluorescence intensity, dose response (AID 720701); assay type: functional;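 also: Artemis endonuclease enzyme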
HeLa = assay: viability loss in HeLa cells – cell-based, 24 h, cherry-picked samples, cytotoxicity control, dose response (AID 504726); assay type: functional; conditions: Homo sapiens;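 also: potency for cytotoxicity as loss of luminescence signal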
cells [10] = conditions: A549
HT-1080 = assay: HT1080 cell viability loss – fluorescence readout (AID 620); assay type: functional, cell-based; conditions: Homo sapiens
ORF 73 = ORF 73 (Human herpesvirus 8, UniProt O40947); assay: KSHV LANA DNA-binding disruption – biochemical, fluorescence polarization, cherry-picked samples, dose response (AID 504725); design: species or system Human gammaherpesvirus 8;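 also: fluorescence polarization of a labeled DNA duplex reporting LANA DNA binding; potency is for inhibitors that block LANA binding to the DNA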
[11] = target: Voltage-dependent T-type calcium channel subunit alpha-1H (Homo sapiens, UniProt O95180); assay: human CACNA1H calcium influx blockade – cell-based, synthetic library set 1, calcium flux (AID 493022); assay type: functional
Caspase-7 = Caspase-7 (Homo sapiens, UniProt P55210); assay: activation of caspase-7 zymogen – biochemical, absorbance, counter-screen for procaspase-3 activator project, dose response (AID 489013)
Caspase-3 = target: T6, Caspase-3 (Homo sapiens, UniProt P42574); assay: activation of caspase-3 zymogen – biochemical, absorbance, dose response (AID 489014)
T6 sequence (P42574 whole entry): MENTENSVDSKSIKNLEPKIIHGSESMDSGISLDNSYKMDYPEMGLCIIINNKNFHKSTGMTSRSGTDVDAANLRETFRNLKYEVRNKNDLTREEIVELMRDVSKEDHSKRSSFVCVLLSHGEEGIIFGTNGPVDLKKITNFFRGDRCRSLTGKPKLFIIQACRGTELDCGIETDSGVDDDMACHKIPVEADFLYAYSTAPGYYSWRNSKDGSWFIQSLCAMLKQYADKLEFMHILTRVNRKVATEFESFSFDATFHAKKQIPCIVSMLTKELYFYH

[12] = target: G-protein coupled receptor 55 (Homo sapiens, UniProt Q9Y2T6); assay: SAR Analysis of Selective Antagonists of GPR55 using an Image-Based Assay - Set 3. [Related pubchem assays (depositor defined):AID2058, AID2079]; assay type: functional
[13] = target: G-protein coupled receptor 35 (Homo sapiens, UniProt Q9HC97); assay: SAR analysis of Antagonists of the GPR35 Receptor using an Image-Based Assay - Set 5. [Related pubchem assays (depositor defined):AID2058, AID2079]; assay type: functional
[14] = target: DNA dC->dU-editing enzyme APOBEC-3A (Homo sapiens, UniProt P31941); assay: A3A deaminase inhibition for selectivity – biochemical, dose response (AID 504722); assay type: functional
[15] = target: DNA dC->dU-editing enzyme APOBEC-3G (Homo sapiens, UniProt Q9HC16); assay: Dose Response confirmation of small molecule APOBEC3G DNA Deaminase Inhibitors via a fluorescence-based single-stranded DNA deaminase assay. [Related pubchem assays (depositor defined):AID493012, AID493028]; assay type: functional
[16] = target: T7, Rac GTPase-activating protein 1 (Homo sapiens, UniProt Q9H0H5); assay: blockers of MgcRacGAP-driven Rac1 GTP hydrolysis – biochemical, ADP Hunter fluorescence, primary and confirmatory, confirmation (AID 624330); assay type: functional
T7 sequence (Q9H0H5 whole entry): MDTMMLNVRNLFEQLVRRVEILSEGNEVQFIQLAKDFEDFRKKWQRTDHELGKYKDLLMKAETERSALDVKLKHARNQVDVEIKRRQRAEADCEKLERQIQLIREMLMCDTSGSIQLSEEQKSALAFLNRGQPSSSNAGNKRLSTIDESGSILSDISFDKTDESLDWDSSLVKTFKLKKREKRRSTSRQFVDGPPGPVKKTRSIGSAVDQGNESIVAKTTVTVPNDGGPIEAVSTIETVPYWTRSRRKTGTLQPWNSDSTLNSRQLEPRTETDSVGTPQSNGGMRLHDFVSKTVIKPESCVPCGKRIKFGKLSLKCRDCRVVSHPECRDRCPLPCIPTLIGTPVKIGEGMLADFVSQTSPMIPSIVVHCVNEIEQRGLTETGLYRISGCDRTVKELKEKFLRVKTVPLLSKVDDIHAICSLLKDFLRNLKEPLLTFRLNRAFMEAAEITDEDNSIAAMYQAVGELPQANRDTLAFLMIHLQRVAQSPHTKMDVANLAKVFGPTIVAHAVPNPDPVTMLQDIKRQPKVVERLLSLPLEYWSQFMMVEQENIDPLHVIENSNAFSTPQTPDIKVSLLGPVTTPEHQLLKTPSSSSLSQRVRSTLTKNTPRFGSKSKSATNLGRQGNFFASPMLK

Caspase-7, sequence (P55210 24-198 limits assumed): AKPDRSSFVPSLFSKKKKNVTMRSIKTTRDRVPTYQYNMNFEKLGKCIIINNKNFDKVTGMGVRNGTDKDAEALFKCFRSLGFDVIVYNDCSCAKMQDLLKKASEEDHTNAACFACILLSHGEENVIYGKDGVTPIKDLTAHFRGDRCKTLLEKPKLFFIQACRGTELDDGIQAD
Caspase-7, sequence (P55210 207-303 limits assumed): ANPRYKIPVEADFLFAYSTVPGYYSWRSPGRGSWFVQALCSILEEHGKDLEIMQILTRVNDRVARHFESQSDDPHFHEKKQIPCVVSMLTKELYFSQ
ORF 73, sequence (O40947 whole entry): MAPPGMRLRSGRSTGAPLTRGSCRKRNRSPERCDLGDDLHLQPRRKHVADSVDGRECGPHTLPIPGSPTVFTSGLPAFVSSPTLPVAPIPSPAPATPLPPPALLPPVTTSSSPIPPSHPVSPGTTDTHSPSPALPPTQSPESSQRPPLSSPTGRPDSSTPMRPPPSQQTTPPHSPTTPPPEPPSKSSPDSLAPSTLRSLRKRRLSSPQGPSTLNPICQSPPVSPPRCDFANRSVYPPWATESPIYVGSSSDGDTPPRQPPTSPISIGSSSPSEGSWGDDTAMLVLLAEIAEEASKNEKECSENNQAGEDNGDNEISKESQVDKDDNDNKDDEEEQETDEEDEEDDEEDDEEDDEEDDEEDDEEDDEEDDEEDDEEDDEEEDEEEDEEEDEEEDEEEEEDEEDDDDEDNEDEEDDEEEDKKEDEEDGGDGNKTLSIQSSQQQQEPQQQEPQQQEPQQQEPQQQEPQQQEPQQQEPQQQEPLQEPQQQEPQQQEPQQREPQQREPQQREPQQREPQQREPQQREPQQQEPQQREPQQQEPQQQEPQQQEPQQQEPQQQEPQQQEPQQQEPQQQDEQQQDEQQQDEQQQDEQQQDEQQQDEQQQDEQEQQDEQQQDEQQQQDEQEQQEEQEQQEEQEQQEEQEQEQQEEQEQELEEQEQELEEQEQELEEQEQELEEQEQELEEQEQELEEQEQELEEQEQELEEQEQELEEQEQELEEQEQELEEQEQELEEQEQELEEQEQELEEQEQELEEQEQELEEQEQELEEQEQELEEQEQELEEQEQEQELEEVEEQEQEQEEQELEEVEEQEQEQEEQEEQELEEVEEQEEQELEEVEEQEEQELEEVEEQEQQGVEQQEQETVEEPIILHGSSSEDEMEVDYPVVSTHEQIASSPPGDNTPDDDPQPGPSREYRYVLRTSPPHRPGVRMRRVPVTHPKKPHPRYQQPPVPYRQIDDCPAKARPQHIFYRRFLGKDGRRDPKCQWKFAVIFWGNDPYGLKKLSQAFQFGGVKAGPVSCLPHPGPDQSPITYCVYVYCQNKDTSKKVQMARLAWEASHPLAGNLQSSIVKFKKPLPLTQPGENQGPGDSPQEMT
G-protein coupled receptor 35, sequence (Q9HC97 whole entry): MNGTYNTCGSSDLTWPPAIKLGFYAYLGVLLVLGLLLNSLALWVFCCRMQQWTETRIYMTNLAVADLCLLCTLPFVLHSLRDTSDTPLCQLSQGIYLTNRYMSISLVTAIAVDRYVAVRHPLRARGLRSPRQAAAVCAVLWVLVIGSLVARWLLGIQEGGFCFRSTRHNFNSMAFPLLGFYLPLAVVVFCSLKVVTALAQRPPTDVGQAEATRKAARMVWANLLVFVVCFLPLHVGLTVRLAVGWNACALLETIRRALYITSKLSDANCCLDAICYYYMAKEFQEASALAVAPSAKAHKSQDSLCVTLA
DNA dC->dU-editing enzyme APOBEC-3A, sequence (P31941 whole entry): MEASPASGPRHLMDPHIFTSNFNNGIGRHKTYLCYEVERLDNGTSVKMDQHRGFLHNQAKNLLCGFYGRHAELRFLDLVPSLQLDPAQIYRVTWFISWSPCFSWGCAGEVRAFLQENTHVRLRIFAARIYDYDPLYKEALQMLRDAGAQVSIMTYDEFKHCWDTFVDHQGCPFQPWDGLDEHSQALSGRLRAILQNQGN
DNA dC->dU-editing enzyme APOBEC-3G, sequence (Q9HC16 whole entry): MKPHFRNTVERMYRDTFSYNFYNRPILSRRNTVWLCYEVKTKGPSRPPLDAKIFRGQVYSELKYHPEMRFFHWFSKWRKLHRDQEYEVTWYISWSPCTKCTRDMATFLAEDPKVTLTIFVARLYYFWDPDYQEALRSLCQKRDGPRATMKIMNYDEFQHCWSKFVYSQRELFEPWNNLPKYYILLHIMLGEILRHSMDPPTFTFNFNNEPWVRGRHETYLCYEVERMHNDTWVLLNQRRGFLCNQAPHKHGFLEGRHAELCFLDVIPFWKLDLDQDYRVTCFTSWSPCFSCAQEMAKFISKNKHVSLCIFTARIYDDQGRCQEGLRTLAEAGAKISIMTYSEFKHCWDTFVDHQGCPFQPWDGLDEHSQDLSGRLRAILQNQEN
Luciferin 4-monooxygenase, sequence (P08659 whole entry): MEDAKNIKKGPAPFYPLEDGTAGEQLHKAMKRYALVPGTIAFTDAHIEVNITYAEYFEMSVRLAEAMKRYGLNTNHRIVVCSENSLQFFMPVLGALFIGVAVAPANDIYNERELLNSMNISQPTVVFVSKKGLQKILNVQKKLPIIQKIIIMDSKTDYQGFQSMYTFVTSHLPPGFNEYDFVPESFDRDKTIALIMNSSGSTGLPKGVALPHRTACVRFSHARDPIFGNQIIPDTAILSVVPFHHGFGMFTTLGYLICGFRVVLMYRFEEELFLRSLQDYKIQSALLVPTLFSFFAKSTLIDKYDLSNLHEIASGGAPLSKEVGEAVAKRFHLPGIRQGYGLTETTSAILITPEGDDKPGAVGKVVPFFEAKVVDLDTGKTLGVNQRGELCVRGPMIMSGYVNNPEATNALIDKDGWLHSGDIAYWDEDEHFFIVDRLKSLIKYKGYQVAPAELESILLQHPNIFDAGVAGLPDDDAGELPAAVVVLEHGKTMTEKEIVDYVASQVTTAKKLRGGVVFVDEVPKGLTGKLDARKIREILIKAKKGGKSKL
G-protein coupled receptor 55, sequence (Q9Y2T6 whole entry): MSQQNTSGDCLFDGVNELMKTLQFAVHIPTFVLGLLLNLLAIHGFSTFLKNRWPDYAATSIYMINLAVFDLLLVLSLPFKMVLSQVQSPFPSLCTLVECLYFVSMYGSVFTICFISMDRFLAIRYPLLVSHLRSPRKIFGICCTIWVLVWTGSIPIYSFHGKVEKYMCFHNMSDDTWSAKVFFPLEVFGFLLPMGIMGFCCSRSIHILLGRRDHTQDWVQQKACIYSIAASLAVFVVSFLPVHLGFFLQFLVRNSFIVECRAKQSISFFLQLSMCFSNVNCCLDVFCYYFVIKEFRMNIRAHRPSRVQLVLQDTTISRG

Compound: N#CC1=C(N)C(C#N)(C#N)C(c2cccnc2)C2CC(c3ccccc3)CC=C12 (stereo not drawn)
AC50 (HEK293): 10.5 µM (active) | EC50 [1]: 4.73 µM (active) | EC50 [2]: > 195 µM (not active)

Compound: c1ccc(-c2cn3nc4c(nc3n2)CCCC4)cc1
EC50 [3]: 14.3 µM (active) | EC50 [4]: 0.29 µM (active) | AC50 [5]: 5.89 µM (active) | AC50 (cells [6]): 12.7 µM (active) | EC50 [7]: 10.6 µM (active) | AC50 (Salmon testes DNA): 169 µM (active) | AC50 [8]: > 52 µM (inactive) | IC50 [9]: > 20 µM (inactive) | AC50 (HeLa): 31.1 µM (active) | AC50 (cells [10]): 15.8 µM (active) | EC50 (HT-1080): > 50 µM (not active) | AC50 (ORF 73): 94.3 µM (active)

Compound: COC(=O)c1cnn(-c2ccccc2)c1/C=N/NC(=S)NC(C)(C)C
IC50 [12]: 6.58 µM (active) | IC50 [13]: 0.307 µM (active)

Compound: O=[N+]([O-])c1cccc(/C=N/n2c(S)nnc2-c2cccnc2)c1
IC50 [14]: > 100 µM (inactive) | IC50 [15]: 2.33 µM (active) | IC50 [16]: 31.9 µM (active)

The remaining lines, values ahead:

EC50 [11]: 10 µM (active)
Compound: O=C(COc1ccc(Cl)cc1)Nc1nnc(-c2ccc3ccccc3c2)o1

EC50 (Caspase-7): > 85.2 µM (inactive) | EC50 (Caspase-3): > 85.2 µM (inactive)
Compound: CC(=O)NCCc1nc2ccccc2n1Cc1ccc(C)cc1
